The source made the active and inactive calls. The rule behind the calls is not given here.

The source of these data is ChEMBL document CHEMBL3727354, “3-(2-amino-ethyl)-5-(3-cyclohexyl-propylidene)-thiazolidine-2,4-dione and its derivatives as multiple signaling pathway inhibitors and for the treatment of cancer” (2011).

Data set [1] can be described thus: Cell cycle arrest in human U937 cells assessed as decrease in cell level at S phase after 24 hrs by propidium iodide staining-based flow cytometric analysis. Type of data set: functional. To be noted: U-937.
Data set [2] relates to Mus musculus. The data set is described as follows: Toxicity in B6C3F1 mouse assessed as effect on body weight at 20 mg/kg, po administered for 21 days. The note with it: in vivo, 504 h. It counts as organism-based.
A short description of data set [3]: Cell cycle arrest in human U937 cells assessed as accumulation at G2/M phase after 24 hrs by propidium iodide staining-based flow cytometric analysis. Type of data set: functional. To be noted: U-937.
The subject of data set [4] is B16-F10. The experiment in a line: Antitumor activity against mouse B16F10 cells implanted in B6C3F1 mouse assessed as increase in mouse survival rate at 50 mg/kg, ip administered on day 11 post tumor implantation measured twice a day during compound dosing. It counts as functional, organism-based.
The nature of data set [5]: Cell cycle arrest in human U937 cells assessed as decrease in cell level at G0/G1 phase after 24 hrs by propidium iodide staining-based flow cytometric analysis. It counts as functional. To be noted: U-937.
In data set [6] the test system is Mus musculus. The data set is described as follows: Toxicity in B6C3F1 mouse assessed as effect on general health at 20 mg/kg, po administered for 21 days. The note with it: in vivo, 504 h. It counts as organism-based.
In a further data set the test system is DU-145. The experiment in a line: Induction of apoptosis in human DU145 cells at 5 to 25 uM after 24 hrs by annexin V/propidium iodide staining-based flow cytometric analysis. Type of data set: functional, cell-based.
Data set [7] relates to Mus musculus. The data set is described as follows: Toxicity in B6C3F1 mouse assessed as effect on general health at 30 to 80 mg/kg, po administered for 21 days. Type of data set: organism-based. The note with it: in vivo, 504 h.
Data set [8] has as its system B16-F10. The data set is described as follows: Antitumor activity against mouse B16F10 cells implanted in B6C3F1 mouse assessed as decrease in lung tumor nodules at 20 mg/kg administered daily via oral gavage started one day before tumor implantation and stopped at day 15 post tumor implantation measured at day 18. It counts as functional, organism-based.
The test system of another data set is U-937. The data set is described as follows: Induction of apoptosis in human U937 cells after 24 hrs by annexin V/propidium iodide staining-based flow cytometric analysis. It counts as functional, cell-based.
The nature of data set [9]: Inhibition of PI3K/Akt pathway in human U937 cells assessed as reduction of Akt phosphorylation preincubated for 1 hr followed by PMA stimulation measured after 30 mins by Western blot analysis. To be noted: U-937. It counts as cell-based.
Data set [10] in a line: Inhibition of Raf/MEK/ERK pathway in human U937 cells assessed as inhibition of ERK1/2 phosphorylation at Thr202/Tyr204 at 3 uM preincubated for 1 hr followed by PMA stimulation measured after 30 mins by Western blot analysis. Type of data set: cell-based. The note with it: U-937.
Data set [11] is described as follows: Inhibition of Raf/MEK/ERK pathway in human U937 cells assessed as reduction of MEK phosphorylation preincubated for 1 hr followed by PMA stimulation measured after 30 mins by Western blot analysis. It counts as cell-based. To be noted: U-937.
The subject of data set [12] is Mus musculus. The data set is described as follows: Toxicity in B6C3F1 mouse assessed as effect on body weight at 30 to 80 mg/kg, po administered for 21 days. Type of data set: organism-based. To be noted: in vivo, 504 h.
The next data set deals with M12. The data set is described as follows: Induction of apoptosis in human M12 cells after 24 hrs by annexin V/propidium iodide staining-based flow cytometric analysis. Type of data set: functional, cell-based.
The nature of data set [13]: Inhibition of Raf/MEK/ERK pathway in human U937 cells assessed as reduction of MEK phosphorylation at 0.3 to 30 uM preincubated for 1 hr followed by PMA stimulation measured after 30 mins by Western blot analysis in presence of MEK inhibitor PD184352. It counts as cell-based. The note with it: U-937.

On to `Cl.NCCN1C(=O)S/C(=C\CCc2ccccc2)C1=O`, for which the result (in [1]; in data set [3]; in the data set on B16-F10 [4]; in data set [5]) was Active. Moreover, the Activity result in the data set on Mus musculus [2] and in the data set on Mus musculus [6] was “Non-toxic” in each case.
For `Cl.NCCN1C(=O)S/C(=C\CCC2CCCCC2)C1=O`, the outcome in the data set on DU-145 was inactive. For the same compound, the Activity entry with Mus musculus [7] is “Non-toxic”; in the data set with U-937 it was “Dose-dependent effect”; with Mus musculus [12], “Non-toxic”; with M12, “Dose-dependent effect”. Also, the outcome (in the data set on B16-F10 [8]; in [1]; in data set [3]; in data set [5]) was Active. Also, the inhibition entry in data set [9] and in data set [11] was “Dose-dependent effect” throughout. Further, the inhibition result in [10] is “Active”. Further, in data set [13], the inhibition result was “inactive”.
